Assay results from patent US10988477B2 (Merck Patent GmbH, priority 2018, dated 2021).

Target: GCN2 kinase (Homo sapiens, UniProt Q9P2K8)
Test: GCN2 enzyme inhibition assay (Transcreener ADP2 fluorescence polarization)
Assay type: biochemical
Settings: 280 μM ATP
Procedure, shortened: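 FP detection of ADP (antibody plus Alexa633 tracer) after a 1 h, 25 °C kinase reaction. Enzyme 4 nM, ATP 280 μM, (RS)7 peptide 200 μM, Tris pH 7.5 buffer with MgCl2 and DTT. Percent inhibition fitted by non-linear tight-binding algorithm for IC50 and Ki(app).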

[1] = Enzyme activity for compounds of Formula IV, Ki(app), 25° C.
[2] = compounds of Formula V, 4 nM GCN2 kinase
[3] = compounds of Formula II, 4 nM GCN2 kinase

Sequence of GCN2 kinase (Q9P2K8 whole entry): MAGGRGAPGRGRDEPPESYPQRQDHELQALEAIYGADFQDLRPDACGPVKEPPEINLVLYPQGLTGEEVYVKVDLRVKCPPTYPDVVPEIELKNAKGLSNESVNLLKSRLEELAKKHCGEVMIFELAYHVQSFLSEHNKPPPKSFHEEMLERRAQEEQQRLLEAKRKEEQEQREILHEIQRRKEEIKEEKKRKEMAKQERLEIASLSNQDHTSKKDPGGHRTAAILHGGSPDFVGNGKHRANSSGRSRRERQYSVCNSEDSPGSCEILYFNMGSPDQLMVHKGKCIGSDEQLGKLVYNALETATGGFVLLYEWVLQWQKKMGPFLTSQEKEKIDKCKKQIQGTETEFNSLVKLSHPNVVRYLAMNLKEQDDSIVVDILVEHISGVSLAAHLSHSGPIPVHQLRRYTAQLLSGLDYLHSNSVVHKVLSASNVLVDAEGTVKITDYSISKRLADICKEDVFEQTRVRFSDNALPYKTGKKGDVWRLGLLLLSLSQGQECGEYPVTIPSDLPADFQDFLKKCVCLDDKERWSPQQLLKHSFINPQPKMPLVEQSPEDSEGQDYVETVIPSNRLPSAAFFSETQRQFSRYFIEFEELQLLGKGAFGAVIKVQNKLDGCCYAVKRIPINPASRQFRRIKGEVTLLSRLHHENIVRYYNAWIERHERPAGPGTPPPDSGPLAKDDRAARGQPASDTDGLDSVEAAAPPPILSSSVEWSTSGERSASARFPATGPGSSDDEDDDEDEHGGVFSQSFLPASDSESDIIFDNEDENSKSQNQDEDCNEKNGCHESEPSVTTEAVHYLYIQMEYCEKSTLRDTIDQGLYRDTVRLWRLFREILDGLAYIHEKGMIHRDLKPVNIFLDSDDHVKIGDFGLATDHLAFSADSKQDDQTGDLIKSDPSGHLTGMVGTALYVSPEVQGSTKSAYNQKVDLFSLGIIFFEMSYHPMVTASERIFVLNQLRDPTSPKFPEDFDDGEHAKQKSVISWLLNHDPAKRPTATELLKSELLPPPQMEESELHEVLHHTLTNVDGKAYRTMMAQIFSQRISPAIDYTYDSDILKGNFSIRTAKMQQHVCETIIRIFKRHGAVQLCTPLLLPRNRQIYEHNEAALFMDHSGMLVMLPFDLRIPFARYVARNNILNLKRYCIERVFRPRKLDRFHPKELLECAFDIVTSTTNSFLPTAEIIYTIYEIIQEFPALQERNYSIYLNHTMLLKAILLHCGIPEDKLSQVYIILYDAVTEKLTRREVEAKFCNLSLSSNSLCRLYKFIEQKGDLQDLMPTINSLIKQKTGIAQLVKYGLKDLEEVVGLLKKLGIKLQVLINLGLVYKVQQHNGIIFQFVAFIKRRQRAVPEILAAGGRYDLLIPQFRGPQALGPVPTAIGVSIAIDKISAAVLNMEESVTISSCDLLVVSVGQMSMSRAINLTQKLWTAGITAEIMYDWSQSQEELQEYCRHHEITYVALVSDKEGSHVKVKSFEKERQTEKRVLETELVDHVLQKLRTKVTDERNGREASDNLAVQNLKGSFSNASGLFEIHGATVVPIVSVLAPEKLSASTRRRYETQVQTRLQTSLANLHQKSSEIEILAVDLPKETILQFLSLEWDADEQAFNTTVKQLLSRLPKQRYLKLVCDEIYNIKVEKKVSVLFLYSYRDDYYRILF

Row | Ki [1] [nM] | Compound | other results
1 | 100 to 1000 | CS(=N)(=O)CC1CCCN(c2ccnc(-c3cnc4cnc(C(F)F)cn34)n2)C1 (single isomer, unassigned) [IV-338, ((1-(2-(6-(Difluoromethyl)imidazo[1,2-a]pyrazin-3-yl)pyrimidin-4-yl)piperidin-3-yl)methyl)(imino)(methyl)-λ^6-sulfanone] | 
2 | 100 to 1000 | CS(=N)(=O)CC1CCCN(c2ccnc(-c3cnc4cnc(C(F)F)cn34)n2)C1 (single isomer, unassigned) [IV-339, ((1-(2-(6-(Difluoromethyl)imidazo[1,2-a]pyrazin-3-yl)pyrimidin-4-yl)piperidin-3-yl)methyl)(imino)(methyl)-λ^6-sulfanone] | 
3 | 100 to 1000 | CC1CC(CS(C)(=N)=O)C(C)N(c2ccnc(-c3cnc4cnc(C(F)F)cn34)n2)C1 (single isomer, unassigned) [IV-367, ((1-(2-(6-(Difluoromethyl)imidazo[1,2-a]pyrazin-3-yl)pyrimidin-4-yl)-2,5-dimethylpiperidin-3-yl)methyl)(imino)(methyl)-λ^6-sulfanone] | 
4 | 10 to 100 | CC1CC(C(N)=O)C(C)N(c2ccnc(-c3cnc4cnc(C(F)(F)F)cn34)n2)C1 (single isomer, unassigned) [IV-481, 2,5-Dimethyl-1-(2-(6-(trifluoromethyl)imidazo[1,2-a]pyrazin-3-yl)pyrimidin-4-yl)piperidine-3-carboxamide] | 
5 | 100 to 1000 | CC1C(C(N)=O)CCCN1c1ccnc(-c2cnc3cnc(C(F)(F)F)cn23)n1 (single isomer, unassigned) [IV-498, 2-Methyl-1-(2-(6-(trifluoromethyl)imidazo[1,2-a]pyrazin-3-yl)pyrimidin-4-yl)piperidine-3-carboxamide] | 
6 | 100 to 1000 | CC1CC(C(N)=O)C(C)N(c2ccnc(-c3cnc4cnc(C(F)(F)F)cn34)n2)C1 (single isomer, unassigned) [IV-500, 2,5-Dimethyl-1-(2-(6-(trifluoromethyl)imidazo[1,2-a]pyrazin-3-yl)pyrimidin-4-yl)piperidine-3-carboxamide] | 
7 | 100 to 1000 | CN1C(=O)CO[C@H]2CN(c3ccnc(-c4cnc5cnc(C(F)(F)F)cn45)n3)C[C@@H]21 (single isomer, unassigned) [IV-551] | 

Continued, compound first:

Row | Compound | Ki [1] [nM] | other results
8 | CC1CN(c2nc(-c3cnc4cnc(C(F)(F)F)cn34)ncc2F)CC(c2cn[nH]c2)O1 (single isomer, unassigned) [IV-335, 4-(5-Fluoro-2-(6-(trifluoromethyl)imidazo[1,2-a]pyrazin-3-yl)pyrimidin-4-yl)-2-methyl-6-(1H-pyrazol-4-yl)morpholine] | 10 to 100 | 
9 | CC1NC(c2cn[nH]c2)C(C)N(c2ccnc(-c3cnc4cnc(C(F)(F)F)cn34)n2)C1C (single isomer, unassigned) [IV-336, 6-(Trifluoromethyl)-3-(4-(2,3,6-trimethyl-5-(1H-pyrazol-4-yl)piperazin-1-yl)pyrimidin-2-yl)imidazo[1,2-a]pyrazine] | 100 to 1000 | 
10 | CC1NC(c2cn[nH]c2)C(C)N(c2ccnc(-c3cnc4cnc(C(F)(F)F)cn34)n2)C1C (single isomer, unassigned) [IV-337, 6-(Trifluoromethyl)-3-(4-(2,3,6-trimethyl-5-(1H-pyrazol-4-yl)piperazin-1-yl)pyrimidin-2-yl)imidazo[1,2-a]pyrazine] | < 10 | 
11 | CC1CN(c2nccc(-c3cnc4cnc(C(F)(F)F)cn34)n2)C(C)C(c2cn[nH]c2)N1 (single isomer, unassigned) [IV-370, 3-(2-(2,5-Dimethyl-3-(1H-pyrazol-4-yl)piperazin-1-yl)pyrimidin-4-yl)-6-(trifluoromethyl)imidazo[1,2-a]pyrazine] | 100 to 1000 | 
12 | CC1CN(c2ccnc(-c3cnc4cnc(C(F)(F)F)cn34)n2)CC(c2cn[nH]c2C(F)(F)F)N1 (single isomer, unassigned) [IV-475, 3-(4-(3-Methyl-5-(5-(trifluoromethyl)-1H-pyrazol-4-yl)piperazin-1-yl)pyrimidin-2-yl)-6-(trifluoromethyl)imidazo[1,2-a]pyrazine] | 10 to 100 | 
13 | Cc1n[nH]c(C)c1C1CCCN(c2ccnc(-c3cnc4cnc(C(F)(F)F)cn34)n2)C1 (single isomer, unassigned) [IV-476, 3-(4-(3-(3,5-Dimethyl-1H-pyrazol-4-yl)piperidin-1-yl)pyrimidin-2-yl)-6-(trifluoromethyl)imidazo[1,2-a]pyrazine] | < 10 | 
14 | Cc1n[nH]c(C)c1C1CCCN(c2ccnc(-c3cnc4cnc(C(F)(F)F)cn34)n2)C1 (single isomer, unassigned) [IV-477, 3-(4-(3-(3,5-Dimethyl-1H-pyrazol-4-yl)piperidin-1-yl)pyrimidin-2-yl)-6-(trifluoromethyl)imidazo[1,2-a]pyrazine] | 10 to 100 | 
15 | N#C[C@@H]1CCN(c2ccnc(-c3cnc4cnc(C(F)(F)F)cn34)n2)C1 (single isomer, unassigned) [IV-521] | 100 to 1000 | 
16 | FC(F)(F)c1cn2c(-c3nccc(N4CCC(c5cn[nH]c5)C4)n3)cnc2cn1 (single isomer, unassigned) [IV-541, 3-(4-(3-(1H-Pyrazol-4-yl)pyrrolidin-1-yl)pyrimidin-2-yl)-6-(trifluoromethyl)imidazo[1,2-a]pyrazine] | 10 to 100 | 
17 | FC(F)(F)c1cn2c(-c3nccc(N4CCCC(C5CCOC5)C4)n3)cnc2cn1 (single isomer, unassigned) [IV-543, 3-(4-(3-(Tetrahydrofuran-3-yl)piperidin-1-yl)pyrimidin-2-yl)-6-(trifluoromethyl)imidazo[1,2-a]pyrazine] | 100 to 1000 | 
18 | FC(F)(F)c1cn2c(-c3nccc(N4CCCC(C5CCOC5)C4)n3)cnc2cn1 (single isomer, unassigned) [IV-544, 3-(4-(3-(Tetrahydrofuran-3-yl)piperidin-1-yl)pyrimidin-2-yl)-6-(trifluoromethyl)imidazo[1,2-a]pyrazine] | 100 to 1000 | 
19 | CC1CN(c2ccnc(-c3cnc4cnc(C(F)(F)F)cn34)n2)C(C)C(c2cnc[nH]2)N1 (single isomer, unassigned) [IV-549, 3-(4-(3-(1H-Imidazol-5-yl)-2,5-dimethylpiperazin-1-yl)pyrimidin-2-yl)-6-(trifluoromethyl)imidazo[1,2-a]pyrazine] | 100 to 1000 | 
20 | C[C@H]1CCCCN1c1ccnc(-c2cnc3cnc(C(F)(F)F)cn23)n1 (single isomer, unassigned) [IV-597] | 10 to 100 | 
21 | CC1CN(c2ccnc(-c3cnc4cnc(C(F)(F)F)cn34)n2)C(C)C(c2c[nH]c(C(F)(F)F)n2)N1 (single isomer, unassigned) [IV-674, 3-(4-(2,5-Dimethyl-3-(2-(trifluoromethyl)-1H-imidazol-4-yl)piperazin-1-yl)pyrimidin-2-yl)-6-(trifluoromethyl)imidazo[1,2-a]pyrazine] | 100 to 1000 | 
22 | C[C@@H]1CN(c2ccnc(-c3cnc4sc(C(F)F)cn34)n2)C[C@H](CNS(C)(=O)=O)C1(F)F (stereo in doubt) [Compound V-2, N-((-1-(2-(2-(difluoromethyl)imidazo[2,1-b]thiazol-5-yl)pyrimidin-4-yl)-4,4-difluoro-5-methylpiperidin-3-yl)methyl)methanesulfonamide] |  | Ki [2]: 100 to 1000 nM
23 | C[C@@H]1[C@H](CNS(C)(=O)=O)CCCN1c1cc(-c2cnc3ccc(C(F)F)nn23)ncn1 (stereo in doubt) [II-754, N-(((2R,3S)-1-(6-(6-(difluoromethyl)imidazo[1,2-b]pyridazin-3-yl)pyrimidin-4-yl)-2-methylpiperidin-3-yl)methyl)methanesulfonamide] |  | IC50 [3]: > 1000 nM
24 | Cc1nn(C)cc1C1CN(c2cc(-c3cnc4ccc(C(F)(F)F)nn34)ncn2)C[C@@H](C)O1 (stereo in doubt) [II-760, (2R,6R)-2-(1,3-dimethyl-1H-pyrazol-4-yl)-6-methyl-4-(6-(6-(trifluoromethyl)imidazo[1,2-b]pyridazin-3-yl)pyrimidin-4-yl)morpholine] |  | IC50 [3]: 10 to 1000 nM
25 | Cc1nn(C)cc1C1CN(c2cc(-c3cnc4ccc(C(F)(F)F)nn34)ncn2)C[C@@H](C)O1 (stereo in doubt) [II-761, (2S,6R)-2-(1,3-dimethyl-1H-pyrazol-4-yl)-6-methyl-4-(6-(6-(trifluoromethyl)imidazo[1,2-b]pyridazin-3-yl)pyrimidin-4-yl)morpholine] |  | IC50 [3]: > 1000 nM
26 | Cc1n[nH]cc1[C@H]1CN(c2ccnc(-c3cnc4cnc(C(F)(F)F)cn34)n2)C[C@@H](C)O1 (stereo in doubt) [IV-762, (2R,6S)-2-methyl-6-(3-methyl-1H-pyrazol-4-yl)-4-(2-(6-(trifluoromethyl)imidazo[1,2-a]pyrazin-3-yl)pyrimidin-4-yl)morpholine] |  | IC50 (compounds of Formula IV, 4 nM GCN2 kinase): 10 to 1000 nM
27 | O=C1CCN(c2ccnc(-c3cnc4sc(C(F)(F)F)cn34)n2)CCN1 [Compound V-8, 1-[2-[2-(Trifluoromethyl)imidazo[2,1-b]thiazol-5-yl]pyrimidin-4-yl]-1,4-diazepan-5-one] |  | Ki [2]: 100 to 1000 nM
28 | CS(C)(=O)=NC1CCCN(c2ccnc(-c3cnc4sc(C(F)(F)F)cn34)n2)C1 (stereo not shown) [Compound V-9, Dimethyl((1-(2-(2-(trifluoromethyl)imidazo[2,1-b]thiazol-5-yl)pyrimidin-4-yl)piperidin-3-yl)imino)-λ^6-sulfanone] |  | Ki [2]: 100 to 1000 nM
29 | CS(=N)(=O)NC[C@@H]1CN(c2cc(-c3cnc4ccc(C(F)F)nn34)ncn2)CCO1 (stereo partly drawn) [II-23, N—(((S)-4-(6-(6-(Difluoromethyl)imidazo[1,2-b]pyridazin-3-yl)pyrimidin-4-yl)morpholin-2-yl)methyl)methanesulfonimidamide] |  | Ki [3]: 10 to 1000 nM
30 | CC1C(CO)N(C(C)(C)C)CCN1c1cc(-c2cnc3ccc(C(F)F)nn23)ncn1 (stereo not shown) [II-43, (1-(tert-Butyl)-4-(6-(6-(difluoromethyl)imidazo[1,2-b]pyridazin-3-yl)pyrimidin-4-yl)-3-methylpiperazin-2-yl)methanol] |  | Ki [3]: > 1000 nM
31 | CS(=O)(=O)NCC1CCCN(c2cc(-c3cnc4ccc(C(F)F)nn34)cc(NCCO)n2)C1 (stereo not shown) [II-91, N-((1-(4-(6-(Difluoromethyl)imidazo[1,2-b]pyridazin-3-yl)-6-((2-hydroxyethyl)amino)pyridin-2-yl)piperidin-3-yl)methyl)methanesulfonamide] |  | Ki [3]: < 10 nM
